We go through 2 compounds from publication PMC8671332 (Journal of cellular biochemistry, 2021).

The structures appear in SMILES notation.

One test has as its target Na+/K+-ATPase (α1β1) (Sus scrofa, UniProt P05024). Put plainly: biochemical.
The test system of test [1] is plasma membrane Ca2+-ATPase (PMCA; isoform not resolved). It counts as cell-based.

Compound `C[C@@H]1O[C@@H](O[C@H]2CC[C@@]3(C)[C@H](CC[C@@H]4[C@@H]3CC[C@]3(C)[C@@H](C5=CC(=O)OC5)CC[C@]43O)C2)CC[C@H]1O` [compound 2, digitoxigenin-α-L-amiceto-pyranoside] showed an IC50 against Na+/K+-ATPase (α1β1) of 0.041 ± 0.003 µM. In addition, the “% inhibition at 100 nM” value in test [1] was ~ 25% inhibition at 100.
In the case of `C[C@@H]1O[C@@H](O[C@H]2CC[C@@]3(C)[C@H](CC[C@@H]4[C@@H]3CC[C@]3(C)[C@@H](C5=CC(=O)OC5)CC[C@]43O)C2)[C@H](O)[C@H](O)[C@H]1O` [compound 1, digitoxigenin-α-L-rhamno-pyranoside], 0.012 ± 0.001 µM corresponded to half-maximal inhibition against Na+/K+-ATPase (α1β1) (IC50).
